Measured values as given in US11149005B2, “Organic amine ester derivative drug of 2-(α-hydroxypentyl)benzoic acid” (YAOPHARMA CO., LTD., priority 2018, dated 2021).
Values after ≈ are worked out from the molar mass of the structure shown. Like-named read-outs stand apart in the source and are kept apart here.

How the values were obtained:
[1] = Solubility in pH 1.0, 4.5, 6.8 buffer solutions and pure water (supersaturated solution, 37° C., HPLC); type: physicochemical; conditions: for solubility: ultrapure water, thermodynamic from solid, 37° C. water bath overnight, read-out: apparent solubility in pure water
Method: 1. The experiment process A pH 1.0 HCl solution, a pH 4.5 acetate buffer solution, a pH 6.8 phosphate buffer solution and 5 mL of ultrapure water are added into graduated test tubes having stoppers. Small amounts of the test samples (butyphthalide (NBP), DB-1 hydrochloride or DB-2 hydrochloride) are weighed and added in batches. After each batch of the adding, intense shaking is performed for 30 seconds (ultrasound is prohibited), the dissolving is observed at any time, and when the test samples are add so that turbid insoluble particles or liquid drops can be seen, finally proper amounts of the test samples are added. The system is placed into a 37° C. water bath and vibrated overnight, to form a supersaturated solution. The supersaturated solution is centrifuged or filtered (the adsorption should be noticed), and 100 μL is fed into HPLC to measure the concentrations of the tested medicines.

[2] = Assessment on the brain targeting ability (Re, Ce, DTI relative to NBP, DAS3.2.5); type: in vivo, Kunming mice; conditions: mice
Method: (§1) 90 Kunming mice (male; 20±2 g) are randomly grouped into three groups, with 30 mice in each of the groups. The first group is the butyphthalide group, is divided into 6 subgroups (5 mice in each of the subgroups), and is administered with butyphthalide by 10 mg/kg. The secondary group is the DB-1 group, is divided into 6 subgroups (5 mice in each of the subgroups), and is administered with DB-1 of the equal moles to the butyphthalide. The third group is the DB-2 group, is divided into 6 subgroups (5 mice in each of the subgroups), and is administered with DB-2 of the equal moles to the butyphthalide. Before the experiment the mice are fasted and are free to drink water. At 5 min, 15 min, 30 min, 1 h, 2 h and 4 h, all of the groups are taken blood at the orbit and then executed, and the hearts, livers, spleens, lungs, kidneys and brains of the mice are immediately separated, washed by using normal saline, dried by using filter paper, weighed, added normal saline of a certain multiple, homogenized, placed into a −40° C. refrigerator, and refrigerated for use. The whole blood is centrifuged at 4500 r/min for 5 min, and the plasma is sucked and placed into a −40° C. refrigerator for use. The stored tissue homogenates are thawed, and 0.1 mL of each of the tissue homogenates is placed into a 0.5 mL EP tube, and added 0.2 mL of acetonitrile protein for precipitation. The precipitate is treated by vortex shocking for 5 minutes, and centrifuged at 10000 rpm for 10 min, and […] of the supernatant is fed into an LC-MS/MS system, for measuring the concentrations of the tested medicines.
The pharmacokinetic parameters are calculated by using the DAS3.2.5 software. Regarding the quantitative assessment on the brain targeting ability of the sodium salt of 2-(α-hydroxypentyl)benzoic acid (NBP), DB-1 hydrochloride and DB-2 hydrochloride, the following parameters are employed: relative uptake ratio (Rebrain), peak concentration ratio (Cebrain) and drug targeting index (DTIbrain), the calculating formulas of which are respectively: Re(brain, DB-1)=(AUCbrain)DB-1/(AUCbrain)NBP CeDB-1=(Cmax,brain)DB-1/(Cmax,brain)NBP DTIDB-1=(AUCbrain/AUCplasma)DB-1/(AUCbrain/AUCplasma)NBP Re(brain, DB-2)=(AUCbrain)DB-2/(AUCbrain)NBP CeDB-2=(Cmax,brain)DB-2/(Cmax,brain)NBP DTIDB-2=(AUCbrain/AUCplasma)DB-2/(AUCbrain/AUCplasma)NBP
The calculation results of the parameters can be seen in Table 2. Regarding DB-1, the brain relative uptake ratio Re is 3.64, the peak concentration ratio Ce is 2.93, and the drug targeting index DTI is 12.45. Regarding DB-2, the brain relative uptake ratio Re is 4.27, the peak concentration ratio Ce is 3.19, and the drug targeting index DTI is 18.08.

[3] = In-vivo tissue distribution in mice (heart, liver, spleen, lung, kidney, brain); set-up: species or system Kunming mice; conditions: for contents in the brain compared with the sodium salt of 2-(α-hydroxypentyl)benzoic acid (NBP): all detection time points
Method: (§2) 1. Animal Grouping and Dosage Regimen
as §1

[4] = Hygroscopicity: moisture absorption/weight gaining percentage at 25° C., relative humidity 75%; type: physicochemical
Method: 1. The Experiment Process
Three samples of each of the sodium salt of 2-(α-hydroxypentyl)benzoic acid, DB-1 and DB-2 are precisely weighed with approximately 0.2 g for each sample, and placed into weighing bottles, and the total masses of each of the samples and its weighing bottle are weighed and recorded. Then the weighing bottles are placed in a closed environment at 25° C. and at a constant humidity with the relative humidity of 75%, their masses are weighed at 6 h, 12 h, 24 h, 48 h, 96 h and 120 h, and the moisture absorption/weight gaining percentages are calculated. The moisture absorption/weight gaining percentages are calculated by using the formula as follows: moisture absorption/weight gaining percentage (%)=(sample mass after dilution—sample mass before dilution)/sample mass before dilution*100%.

[5] = Pharmacokinetics in mice: blood concentration versus time (LC-MS/MS); type: in vivo, Kunming mice; conditions: 10 mg/kg butyphthalide or equal moles; for concentration at 5 min / concentration at 1 h: male, Kunming, mouse, plasma
Method: as §2, §1

[6] = pH 1.0 HCl, pH 4.5 acetate, pH 6.8 phosphate buffer, pure water
[7] = 5 min after intravenous administration
[8] = 1 h after intravenous administration

| Compound | brain relative uptake ratio Re (AUCbrain of compound / AUCbrain of NBP) [2] | drug targeting index DTI ((AUCbrain/AUCplasma) of compound / (AUCbrain/AUCplasma) of NBP) [2] | peak concentration ratio Ce (Cmax,brain of compound / Cmax,brain of NBP) [2] | permeation of the blood-brain barrier [3] | contents in the brain compared with the sodium salt of 2-(α-hydroxypentyl)benzoic acid (NBP) [3] | moisture absorption/weight gaining percentage ([4]; 6 h) | moisture absorption/weight gaining percentage ([4]; 12 h) | moisture absorption/weight gaining percentage ([4]; 24 h) | moisture absorption/weight gaining percentage ([4]; 48 h) | moisture absorption/weight gaining percentage ([4]; 96 h) | moisture absorption/weight gaining percentage ([4]; 120 h) | influence of pH on solubility [1, 6] | solubility class in words ([1]; pure water) | solubility ([1]; pure water) | concentration at 5 min [5, 7] | concentration at 1 h [5, 8] | further results |
| --- | --- | --- | --- | --- | --- | --- | --- | --- | --- | --- | --- | --- | --- | --- | --- | --- | --- |
| CCCCC1OC(=O)c2ccccc21 (racemic) [Butyphthalide (NBP), dl-3-n-butylphthalide, reference compound] | – | – | – | – | – | – | – | – | – | – | – | – | – | – | – | – | apparent solubility in pure water [1]: 0.0734 ± 0.0123 mg/mL; influence of pH on solubility [1]: not obvious; solubility class in words [1]: insoluble medicine |
| CCCCC(OC(C)=O)c1ccccc1C(=O)OCCN(C)C (stereo not shown) [DB-1] | 3.64 | 12.45 | 2.93 | can also permeate the blood-brain barrier and enter the brain | significant greater | 0.42% | 0.65% | 0.88% | 0.93% | 0.97% | 1.03% | highest in the pH 1.0 HCl solution | soluble medicines | 20 ± 2.98 mg/mL (≈ 62.3 mM) | 8.68 ± 1.48 µM | 2.98 ± 0.534 µM | moisture absorption/weight gaining percentage ([4]; 120 h, listed as DB-1 hydrochloride): 1.03±0.07% |
| CCCCC(OC(C)=O)c1ccccc1C(=O)OCCN1CCCCC1 (stereo not shown) [DB-2] | 4.27 | 18.08 | 3.19 | can also permeate the blood-brain barrier and enter the brain | significant greater | 0.38% | 0.54% | 0.65% | 0.71% | 0.72% | 0.76% | highest in the pH 1.0 HCl solution | soluble medicines | 11.7 ± 1.89 mg/mL (≈ 32.2 mM) | 6.29 ± 1.2 µM | 1.45 ± 0.657 µM | accumulated concentration in the brain compared with DB-1 hydrochloride [3]: greater; moisture absorption/weight gaining percentage ([4]; 120 h, listed as DB-2 hydrochloride): 0.76±0.06% |
| CCCCC(O)c1ccccc1C(=O)[O-].[Na+] (stereo not drawn) [sodium salt of 2-(α-hydroxypentyl)benzoic acid, reference compound] | – | – | – | can permeate the blood-brain barrier and enter the brain | – | – | – | – | – | – | 2.49±0.25% | – | – | – | – | – | contents in the heart, the lung and the brain ([3]; 4 h after administration): too low to be detected; blood concentration [5, 7]: 12.243 ± 1.847 µM; blood concentration [5, 8]: 0.547 ± 0.289 µM |
